Assay results as given in patent publication US4048307A, “Cyclic adenosine monophosphate 8-substituted derivatives” (priority 1974, dated 1977).

What was measured:
[1] = target: Hog Brain Phosphodiesterase (PDE); experiment: Inhibition of c-AMP hydrolysis by hog brain phosphodiesterase (PDE); format: biochemical; settings: for Ki: Lineweaver-Burk plot slope and Dixon plot cross-point, read-out: Inhibition II: Inhibition Constant (Ki); for Inhibition I: Relative Inhibition: c-AMP 1.0, derivative 1.0 millimole/liter
Method: **PDE inhibition was evaluated based on the relative inhibition observed
when the sample compound was added at the same molar concentration as tha
of the substrate (1 millimole/liter) and the inhibition constant (ki)
calculated according to the enzymological method (Lineweaver-Burk plot).
The enzyme purification was conducted by ammonium sulfate fractionation and passage through DEAE cellulose column according to the modification of the method of T. S. Teo, T. T. Wang et al. (J. Biol. Chemi. 248, 585). […] Reaction and analysis were carried out as taught by Bucher and Sutherland [J. Biol. Chemi., 237, 1244 (1962)].
*: The values were calculated according the following equation: 100
containing no inhibitor.
**: Ki values were calculated from the slope of Lineweaver-Burk plot and
the cross-point of Dixon plot.?

CHO-Ki cells [2] = experiment: Reverse transformation of cultured CHO-Ki cells (c-AMP level elevation, membrane permeability by L.R.C.); format: cell-based, Chinese hamster; settings: for minimal effective concentration: Cricetulus griseus, microscopic analysis after 16 and 30 hours, read-out: L.R.C. (limiting reverse-transformable concentration)
Method: We utilized their test system and tested new derivatives as regards the following two properties:
The tests were conducted in the following manner according to the modification of the method of Hsie and Puck:
2. The membrane permeability was evaluated based on the reverse transformation. More specifically, new derivatives were added at a concentration of 10^-3, 5 × 10^-2, 10^-1, 2× 10^-1, 5 × 10^-1 or 1 millimole/liter to the above-mentionedmedium. After 16 and 30 hours, microscopic analysis was conducted, and the limiting reverse-transformable concentration (referred to as "L.R.C.") was determined and the membrane permeability was evaluated, based on the so determined L.R.C. value.
***The membrane permeability was determined based on the minimum
concentration causing the re-transformation of cultured CHO-Ki cells. (Th

[3] = tested on: Hog Brain Phosphodiesterase (PDE); experiment: Inhibition of c-AMP hydrolysis by hog brain phosphodiesterase (PDE); format: biochemical; settings: c-AMP 1.0, derivative 0.5 millimole/liter
CHO-Ki cells [4] = settings: 10^-3 mole/liter; Hsie and Puck; cited from earlier work
[5] = tested on: Hog Brain Phosphodiesterase (PDE); settings: Hsie and Puck; cited from earlier work
protein kinases = settings: Hsie and Puck; cited from earlier work

| SMILES | Ki [1] [µM] | Inhibition I: Relative Inhibition [1] [%] | Inhibition I: Relative Inhibition [3] [%] | minimal effective concentration (CHO-Ki cells [2]) [µM] | Toxic (remark at 10^-3 mole/liter) (CHO-Ki cells [2]) | reverse transformation of CHO-Ki (literature) (CHO-Ki cells [4]) | PDE inhibition (literature) [5] | protein kinase activation (literature) (protein kinases) |
| --- | --- | --- | --- | --- | --- | --- | --- | --- |
| CCCNc1nc2c(N)ncnc2n1[C@@H]1O[C@@H]2COP(=O)(O)O[C@H]2[C@H]1O [8-CH3 (CH2)2 NH-c-AMP, 8-n-propylamino-c-AMP] | 230 | 51.1 | – | – | – | – | – | – |
| CCCSc1nc2c(N)ncnc2n1[C@@H]1O[C@@H]2COP(=O)(O)O[C@H]2[C@H]1O [8-CH3 (CH2)2 S-c-AMP, 8-n-propylmercapto-c-AMP] | 78 | 60.1 | – | ~400 | – | – | – | – |
| CCCCNc1nc2c(N)ncnc2n1[C@@H]1O[C@@H]2COP(=O)(O)O[C@H]2[C@H]1O [8-CH3 (CH2)3 NH-c-AMP, 8-n-butylamino-c-AMP] | 120 | 55.6 | – | ~300 | – | – | – | – |
| CCCCSc1nc2c(N)ncnc2n1[C@@H]1O[C@@H]2COP(=O)(O)O[C@H]2[C@H]1O [8-CH3 (CH2)3 S-c-AMP, 8-n-butylmercapto-c-AMP] | 74 | 64.3 | – | ~400 | – | – | – | – |
| CCCCCCCSc1nc2c(N)ncnc2n1[C@@H]1O[C@@H]2COP(=O)(O)O[C@H]2[C@H]1O [8-CH3 (CH2)6 S-c-AMP, 8-n-heptylmercapto-c-AMP] | – | – | 90.4 | 300 | – | – | – | – |
| CCCCCCCCNc1nc2c(N)ncnc2n1[C@@H]1O[C@@H]2COP(=O)(O)O[C@H]2[C@H]1O [8-CH3 (CH2)7 NH-c-AMP, 8-n-octylamino-c-AMP] | – | – | 80.0 | – | – | – | – | – |
| CCCCCCCCCCNc1nc2c(N)ncnc2n1[C@@H]1O[C@@H]2COP(=O)(O)O[C@H]2[C@H]1O [8-CH3 (CH2)9 NH-c-AMP, 8-n-decylamino-c-AMP] | 82 | – | 67.6 | ~80 | Toxic | – | – | – |
| CCCCCCCCCCCNc1nc2c(N)ncnc2n1[C@@H]1O[C@@H]2COP(=O)(O)O[C@H]2[C@H]1O [8-CH3 (CH2)10 NH-c-AMP, 8-n-undecylamino-c-AMP] | 170 | – | 51.4 | ~50 | Toxic | – | – | – |
| CCCCCCCCCCCSc1nc2c(N)ncnc2n1[C@@H]1O[C@@H]2COP(=O)(O)O[C@H]2[C@H]1O [8-CH3 (CH2)10 S-c-AMP, 8-n-undecylmercapto-c-AMP] | 88 | 39.1 | – | < 5 | Toxic | – | – | – |
| CCCCCCCCCCCCNc1nc2c(N)ncnc2n1[C@@H]1O[C@@H]2COP(=O)(O)O[C@H]2[C@H]1O [8-CH3 (CH2)11 NH-c-AMP, 8-n-dodecylamino-c-AMP] | 660 | – | 18.3 | ~70 | Toxic | – | – | – |
| CCCCCCCCCCCCSc1nc2c(N)ncnc2n1[C@@H]1O[C@@H]2COP(=O)(O)O[C@H]2[C@H]1O [8-CH3 (CH2)11 S-c-AMP, 8-n-dodecylmercapto-c-AMP] | 140 | 26.4 | – | < 5 | Toxic | – | – | – |
| CCCCCCCCCCCCCNc1nc2c(N)ncnc2n1[C@@H]1O[C@@H]2COP(=O)(O)O[C@H]2[C@H]1O [8-CH3 (CH2)12 NH-c-AMP, 8-n-tridecylamino-c-AMP] | 840 | – | 11.3 | ~90 | Toxic | – | – | – |
| CNc1nc2c(N)ncnc2n1[C@@H]1O[C@@H]2COP(=O)(O)O[C@H]2[C@H]1O [8-CH3 NH-c-AMP, 8-methylamino-c-AMP, reference compound] | 210 | 47.6 | – | ~500 | – | – | – | – |
| Nc1ncnc2c1nc(Br)n2[C@@H]1O[C@@H]2COP(=O)(O)O[C@H]2[C@H]1O [Example 8-Br-c-AMP, 8-bromo-c-AMP, reference compound] | 470 | 38.9 | – | ~200 | – | – | – | – |
| CCCC(=O)Nc1ncnc2c1ncn2[C@@H]1O[C@@H]2COP(=O)(O)O[C@H]2[C@H]1OC(=O)CCC [N^6,O^2' -dibutyryl-c-AMP] | – | – | – | – | – | reversely transformed from the epitherial form to the fibroblast form | inhibits PDE to elevate the intracellular c-AMP level | activate protein kinases |

Now from value to molecule, other results behind:

| Ki [1] [µM] | Inhibition I: Relative Inhibition [1] [%] | Inhibition I: Relative Inhibition [3] [%] | SMILES | minimal effective concentration (CHO-Ki cells [2]) [µM] | Toxic (remark at 10^-3 mole/liter) (CHO-Ki cells [2]) | reverse transformation of CHO-Ki (literature) (CHO-Ki cells [4]) | PDE inhibition (literature) [5] | protein kinase activation (literature) (protein kinases) |
| --- | --- | --- | --- | --- | --- | --- | --- | --- |
| 72 | 62.3 | – | CCCCCNc1nc2c(N)ncnc2n1[C@@H]1O[C@@H]2COP(=O)(O)O[C@H]2[C@H]1O [8-CH3 (CH2)4 NH-c-AMP, 8-n-pentylamino-c-AMP] | – | – | – | – | – |
| 40 | 76.7 | – | CCCCCSc1nc2c(N)ncnc2n1[C@@H]1O[C@@H]2COP(=O)(O)O[C@H]2[C@H]1O [8-CH3 (CH2)4 S-c-AMP, 8-n-amylmercapto-c-AMP] | 400 | – | – | – | – |
| 58 | 76.1 | – | CCCCCCNc1nc2c(N)ncnc2n1[C@@H]1O[C@@H]2COP(=O)(O)O[C@H]2[C@H]1O [8-CH3 (CH2)5 NH-c-AMP, 8-n-hexylamino-c-AMP] | – | – | – | – | – |
| 19 | 92.4 | – | CCCCCCSc1nc2c(N)ncnc2n1[C@@H]1O[C@@H]2COP(=O)(O)O[C@H]2[C@H]1O [8-CH3 (CH2)5 S-c-AMP, 8-n-hexylmercapto-c-AMP] | 300 | – | – | – | – |
| 26 | 78.2 | – | CCCCCCCNc1nc2c(N)ncnc2n1[C@@H]1O[C@@H]2COP(=O)(O)O[C@H]2[C@H]1O [8-CH3 (CH2)6 NH-c-AMP, 8-n-heptylamino-c-AMP] | – | – | – | – | – |
| 16 | 95.0 | – | CCCCCCCCSc1nc2c(N)ncnc2n1[C@@H]1O[C@@H]2COP(=O)(O)O[C@H]2[C@H]1O [8-CH3 (CH2)7 S-c-AMP, 8-n-octylmercapto-c-AMP] | 20 | Toxic | – | – | – |
| 27 | – | 71.3 | CCCCCCCCCNc1nc2c(N)ncnc2n1[C@@H]1O[C@@H]2COP(=O)(O)O[C@H]2[C@H]1O [8-CH3 (CH2)8 NH-c-AMP, 8-n-nonylamino-c-AMP] | – | – | – | – | – |
| 31 | – | 74.9 | CCCCCCCCCSc1nc2c(N)ncnc2n1[C@@H]1O[C@@H]2COP(=O)(O)O[C@H]2[C@H]1O [8-CH3 (CH2)8 S-c-AMP, 8-n-nonylmercapto-c-AMP] | 10 | Toxic | – | – | – |
| 46 | – | 68.2 | CCCCCCCCCCSc1nc2c(N)ncnc2n1[C@@H]1O[C@@H]2COP(=O)(O)O[C@H]2[C@H]1O [8-CH3 (CH2)9 S-c-AMP, 8-n-decylmercapto-c-AMP] | < 5 | Toxic | – | – | – |
